These results are taken from patent US8551984B2, “Aminopyrimidines as SYK inhibitors” (Merck Sharp & Dohme Corp., priority 2009, dated 2013).

Some results are limits rather than exact numbers.

The target in one experiment is recombinant human SYK (GST-hSYK fusion protein) (Homo sapiens, UniProt P43405). The experiment can be described thus: biochemical. The note with it: Syk IC50, HTRF, recombinant human GST-SYK. Background: Time-resolved FRET reads energy transfer from a long-lived donor to a nearby acceptor.
From the text: Homogeneous Time-Resolved Fluorescence (HTRF) Assay for the Recombinant Human SYK Enzyme:
For orientation: IC50 means the concentration needed to halve the response being measured. In the case of `Cc1cc(Nc2nccc([C@@H](C)F)n2)cc(-c2cnc([C@@]3(O)CC[C@H](C(=O)O)C(C)(C)C3)s2)c1` [(1S,4R)-4-{5-[3-({4-[(1R)-1-fluoroethyl]pyrimidin-2-yl}amino)-5-methylphenyl]-1,3-thiazol-2-yl}-4-hydroxy-2,2-dimethylcyclohexanecarboxylic acid], the IC50 was < 0.5 nM.

`Cc1cc(Nc2nccc([C@H](C)F)n2)cc(-c2cnc([C@@]3(O)CC[C@H](C(=O)O)C(C)(C)C3)s2)c1` [(1S,4R)-4-{5-[3-({4-[(1S)-1-fluoroethyl]pyrimidin-2-yl}amino)-5-methylphenyl]-1,3-thiazol-2-yl}-4-hydroxy-2,2-dimethylcyclohexanecarboxylic acid]: the IC50 is < 0.5 nM.

Staying with this experiment, now noted: rhSYK Activity (IC50), recombinant human GST-SYK 5 pM, ATP 25 μM, biotinylated substrate peptide 250 nM, HTRF, 10-dose titration.
Consider `Cc1cc(Nc2nccc(C(F)(F)F)n2)cc(-c2cnc(C3(O)CC(C)(C)C(C(=O)O)CC3O)s2)c1` (stereo not drawn) [142(1), 1,4-Trans, 1,5-trans-4,5-dihydroxy-2,2-dimethyl-4-[5-(3-methyl-5-{[4-(trifluoromethyl)pyrimidin-2-yl]amino}phenyl)-1,3-thiazol-2-yl]cyclohexanecarboxylic acid], for which the half-maximal inhibitory concentration (IC50) was < 100 nM.

In the case of `CO/C=C/c1ncc(-c2cc(C)cc(Nc3nccc(C(F)(F)F)n3)c2)s1` [153(A), N-(3-{2-[(E)-2-Methoxyethenyl]-1,3-thiazol-5-yl}-5-methylphenyl)-4-(trifluoromethyl)pyrimidin-2-amine], the IC50 was < 100 nM.

On to `CO/C=C\c1ncc(-c2cc(C)cc(Nc3nccc(C(F)(F)F)n3)c2)s1` [153(B), N-(3-{2-[(Z)-2-Methoxyethenyl]-1,3-thiazol-5-yl}-5-methylphenyl)-4-(trifluoromethyl)pyrimidin-2-amine], for which the IC50 is < 100 nM.

Take `CCOP(=O)(OCC)[C@]1(O)CC[C@](O)(c2ncc(-c3cc(C)cc(Nc4nccc(C(F)(F)F)n4)c3)s2)CC1` [155(B), Diethyl{trans-1,4-dihydroxy-4-[5-(3-methyl-5-{[4-(trifluoromethyl)pyrimidin-2-yl]amino}phenyl)-1,3-thiazol-2-yl]cyclohexyl}phosphonate]: the IC50 is < 100 nM.

The same experiment, now with this note: rhSYK Activity, Table 10, Formula A.
Regarding `COc1ccnc(Nc2cc(C)cc(-c3cnc(C4(O)CCNC(=O)CC4)s3)c2)n1` (stereo not shown) [Example 10A-1], the 50% inhibitory concentration (IC50) was < 100 nM.

In the case of `COCc1cc(Nc2nccc(C(F)(F)F)n2)cc(-c2cnc(C3(O)CCNC(=O)CC3)s2)c1` (stereo not shown) [Example 10A-4], the IC50 was < 100 nM.

The experiment is the same for the next values; noted with them: rhSYK Activity, Table 10, Formula B.
As to `Cc1cc(Nc2nccc(C(F)(F)F)n2)cc(-c2cnc(C3=CC(=O)NCC3)s2)c1` [Example 10B-1], the IC50 is < 100 nM.

Still in this experiment, the particulars now being: rhSYK Activity, Table 15.
In the case of `OC1(c2ncc(-c3cccc(Nc4nccc(C(F)(F)F)n4)c3)s2)CCCC1` [Example 15-2], the IC50 was < 100 nM.

Take `Cc1cc(Nc2nccc(C(F)(F)F)n2)cc(-c2cnc(C(C)(O)C(F)(F)F)s2)c1` (stereo not shown) [Example 15-4]: the IC50 is < 100 nM.

Take `CC(O)c1ncc(-c2cccc(Nc3nccc(C(F)(F)F)n3)c2)s1` (stereo not shown) [Example 15-5, 1-[5-(3-{[4-(Trifluoromethyl)pyrimidin-2-yl]amino}phenyl)-1,3-thiazol-2-yl]ethanol]: the IC50 is < 100 nM.

Staying with this experiment, now noted: rhSYK Activity, Table 116A.
As to `Cc1cc(Nc2nccc(C(C)(C)C)n2)cc(-c2cnc(C3(O)CCC(C(=O)OC(C)(C)C)CC3)s2)c1` (stereo not shown) [116A-12], the IC50 lay within 100 to 1000 nM.

For the molecule `Cc1cc(Nc2nccc(C(F)(F)C(F)(F)F)n2)cc(-c2cnc(C3(O)CCC(C(=O)O)CC3)s2)c1` (stereo not shown) [116A-13], the half-inhibitory concentration (IC50) is < 100 nM.

Regarding `COc1nc(Nc2cc(C)cc(-c3cnc(C4(O)CCC(C(=O)OC(C)(C)C)CC4)s3)c2)ncc1Cl` (stereo not shown) [116A-14], the IC50 is 100 to 1000 nM.

For the molecule `Cc1cc(Nc2nccc(-c3cccs3)n2)cc(-c2cnc(C3(O)CCC(C(=O)OC(C)(C)C)CC3)s2)c1` (stereo not shown) [116A-15], the IC50 was in the range of 100 to 1000 nM.

Consider `Cc1cc(Nc2nccc(C(F)F)n2)cc(-c2cnc(C3(O)CCC(C(=O)O)C(C)C3)s2)c1` (stereo not shown) [116A-18], for which the IC50 is < 100 nM.

As for `Cc1cc(Nc2nccc(C(C)(C)C)n2)cc(-c2cnc(C3(O)CCC(C(=O)O)C(C)C3)s2)c1` (stereo not shown) [116A-20], the IC50 is < 100 nM.

Consider `Cc1cc(Nc2nccc(OC(C)C)n2)cc(-c2cnc(C3(O)CCC(C(=O)O)C(C)C3)s2)c1` (stereo not shown) [116A-21], for which the IC50 is < 100 nM.

On to `COC(=O)C1CCC(O)(c2ncc(-c3cc(C)cc(Nc4ncc(F)cn4)c3)s2)CC1(C)C` (stereo not shown) [116A-22], for which the half-maximal inhibitory concentration (IC50) lay in the range of 100 to 1000 nM.

In the case of `Cc1cc(Nc2ncc(F)c(O)n2)cc(-c2cnc(C3(O)CCC(C(=O)O)C(C)(C)C3)s2)c1` (stereo not shown) [116A-23], the IC50 lay within 100 to 1000 nM.

For `Cc1cc(Nc2nccc(C(=O)O)n2)cc(-c2cnc([C@@]3(O)CC[C@H](C(=O)O)C(C)(C)C3)s2)c1` [116A-24], the IC50 is < 100 nM.

With `COC(=O)C1CCC(O)(c2ncc(-c3cc(C)cc(Nc4ncc(F)c(C)n4)c3)s2)CC1(C)C` (stereo not shown) [116A-25], the IC50 was < 100 nM.

With `Cc1cc(Nc2ncc(Cl)c(C)n2)cc(-c2cnc([C@@]3(O)CC[C@H](C(=O)O)C(C)(C)C3)s2)c1` [116A-27], the IC50 is < 100 nM.

As to `COc1nc(Nc2cc(C)cc(-c3cnc(C4(O)CCC(C(=O)O)C(C)(C)C4)s3)c2)ncc1F` (stereo not shown) [116A-28], the IC50 was < 100 nM.

With `Cc1cc(Nc2nccc(C(F)F)n2)cc(-c2cnc([C@@]3(O)CC[C@H](C(=O)O)C(C)(C)C3)s2)c1` [116A-30], the IC50 was < 100 nM.

On to `Cc1cc(Nc2nccc(C3CCC3)n2)cc(-c2cnc([C@@]3(O)CC[C@H](C(=O)O)C(C)(C)C3)s2)c1` [116A-31], for which the IC50 was < 100 nM.

Take `Cc1cc(Nc2nccc(C(C)(C)C)n2)cc(-c2cnc(C3(O)CCC(C(=O)O)C(C)(C)C3)s2)c1` (stereo not shown) [116A-32]: the IC50 was < 100 nM.

Consider `Cc1cc(Nc2nccc(OC(C)C)n2)cc(-c2cnc([C@@]3(O)CC[C@H](C(=O)O)C(C)(C)C3)s2)c1` [116A-33], for which the IC50 was < 100 nM.

Turning to `COC(=O)C1CCC(O)(c2ncc(-c3cc(C)cc(Nc4ncc(Cl)c(C)n4)c3)s2)CC1(C)C` (stereo not shown) [116A-34], the IC50 lay within 100 to 1000 nM.

For `COC(=O)C1CCC(O)(c2ncc(-c3cc(C)cc(Nc4ncc(F)c(OC)n4)c3)s2)CC1(C)C` (stereo not shown) [116A-35], the IC50 fell in the range of 100 to 1000 nM.

Consider `COc1nc(Nc2cc(C)cc(-c3cnc(C4(O)CCC(C(=O)O)C(C)(C)C4)s3)c2)ncc1Cl` (stereo not shown) [116A-36], for which the IC50 was < 100 nM.

For the molecule `COC(=O)C1CCC(O)(c2ncc(-c3cc(C)cc(Nc4ncc(Cl)c(OC)n4)c3)s2)CC1(C)C` (stereo not shown) [116A-38], the IC50 lay in the range of 100 to 1000 nM.

For `Cc1cc(Nc2nccc([C@@H](C)F)n2)cc(-c2cnc([C@@]3(O)CC[C@H](C(=O)O)C(C)(C)C3)s2)c1` [116A-39], the IC50 is < 100 nM.

As to `Cc1cc(Nc2nccc([C@H](C)F)n2)cc(-c2cnc([C@@]3(O)CC[C@H](C(=O)O)C(C)(C)C3)s2)c1` [116A-40], the IC50 was < 100 nM.

The same experiment, now with this note: rhSYK Activity, table of Examples 16-x.
On to `CCCC(=O)Nc1cc(Nc2nccc(C(F)(F)F)n2)cc(-c2cnc(C3(O)CCC3)s2)c1` [Example 16-1], for which the IC50 was < 100 nM.

In the case of `O=C(Nc1cc(Nc2nccc(C(F)(F)F)n2)cc(-c2cnc(C3(O)CCC3)s2)c1)C1CC1` [Example 16-2], the IC50 is < 100 nM.

The experiment is the same for the next values; noted with them: rhSYK Activity, table of Examples 19-x.
Consider `CCNC(=O)Nc1cc(Nc2nccc(C(F)(F)F)n2)cc(-c2cnc(C3(O)CCC3)s2)c1` [Example 19-1], for which the IC50 is < 100 nM.

For `NC(=O)Nc1cc(Nc2nccc(C(F)(F)F)n2)cc(-c2cnc(C3(O)CCC3)s2)c1` [Example 19-2], the IC50 is < 100 nM.

With `CNC(=O)Nc1cc(Nc2nccc(C(F)(F)F)n2)cc(-c2cnc(C3(O)CCC3)s2)c1` [Example 19-3], the IC50 is < 100 nM.
